Values joined by “and” are separate entries in the source; they are usually repeats but may differ in a detail not shown here. Equal entries are not always repeated.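 Cultured in 96-well plates, cells were exposed to test compound for 48 hours across five concentrations. At the GI50, growth is halved. TGI is the concentration that stops growth completely.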
Key:
Assay in all cases: inhibition of tumour cell growth, NCI panel, 48 h
[1] = test system: A549 NSCLC
[2] = test system: NCI-H522 lung
[3] = test system: BT-549 breast
[4] = test system: SF-295 CNS
[5] = test system: EKVX NSCLC
[6] = test system: HL-60(TB) leukemia
[7] = test system: OVCAR-8 ovarian
[8] = test system: DU-145 prostate
[9] = test system: HCC-2998 colon
[10] = test system: MDA-MB-435
[11] = test system: SF-268 CNS

Structure (SMILES)	TGI [1] [µM]	TGI [2]	TGI [3]	TGI [4] [µM]	TGI [5]	TGI [6]	TGI [7]	TGI [8] [µM]	TGI [9]	TGI [10]	TGI [11]	GI50 [2]	GI50 [3]	GI50 [4]	GI50 [5]	GI50 [6]	GI50 [7]	GI50 [9]	GI50 [10]
O=c1c(Cc2ccc(Cl)cc2)nnc2sc(-c3ccc(-c4ccc(Cl)cc4Cl)o3)nn12	> 100	> 100 µM	> 100 µM	> 100	> 100 µM	> 100 µM	> 100 µM	> 100	> 100 µM	> 100 µM	> 100 µM								
N/C1=C/C(=O)NC(=O)c2c(c3ccccc3oc2=O)C1	> 100	> 100 µM	> 100 µM		> 100 µM	> 100 µM	> 100 µM	> 100	> 100 µM	> 100 µM	> 100 µM								
Cc1cccc(CC(Cc2ccc(C)cc2C(=O)O)C(=O)O)c1 (centres undefined)	> 100	> 100 µM	> 100 µM	> 100	> 100 µM	> 100 µM	> 100 µM	> 100	> 100 µM	> 100 µM	> 100 µM								
Cc1ccc2c(c1)nc1n2C(N)=Nc2ccccc2S1	> 100	> 100 µM	> 100 µM	> 100	> 100 µM	6.86 µM	> 100 µM	> 100	> 100 µM	> 100 µM	> 100 µM								
O=C1CSC(c2ccc(Cl)cc2Cl)N1c1ccc(Oc2ccc(Cl)cc2)c(Cl)c1 (centres undefined)	> 100	31.5 µM	68.2 µM	50.9	74 µM	48.3 µM	> 100 µM	> 100	> 100 µM	26.3 µM	51.1 µM								
OC1(c2ccc(Cl)cc2)c2ccccc2-c2nc3ccccc3n21 (centres undefined)	> 100	> 100 µM	> 100 µM	> 100	> 100 µM	> 100 µM	> 100 µM	> 100	> 100 µM	> 100 µM	> 100 µM								
O=C(SCc1cccc2ccccc12)c1ccc(Cl)cc1	> 100	> 100 µM	> 100 µM	> 100	> 100 µM	> 100 µM	> 100 µM	> 100	> 100 µM	> 100 µM	> 100 µM								
CC1OC(OC2C(O[C@H]3CC[C@@]4(C)C(=CC[C@H]5[C@@H]6C[C@@H]7O[C@]8(CC[C@@H](C)CO8)[C@@H](C)[C@@H]7[C@@]6(C)CC[C@@H]54)C3)OC(CO)C(O)C2O)C(O)C(O)C1O (some centres undefined)	1.76	2.77 µM	8.31 µM	2.44	6.47 µM	2.87 µM	3.63 µM	2.53	2.26 µM	2.8 µM	5.46 µM								
COC(=O)c1cc(OC)c(OC)c(OC)c1-c1cc2c(cc1C=O)OCO2	> 10	> 10 µM	> 10 µM	> 10	> 10 µM	> 10 µM	> 10 µM	> 10	> 10 µM	> 10 µM	> 10 µM								
CC(C)=CC[C@]12CCN(C)[C@H]1N(S(=O)(=O)c1ccccc1)c1ccccc12	> 100	41.8 µM	> 100 µM	> 100	> 63.9 µM	> 74.6 µM	> 100 µM	> 100	> 61.4 µM	> 71.6 µM	> 100 µM								
CC(=O)OCC1OC(n2c(Br)nc3c2c(=O)n(C)c(=O)n3C)C(OC(C)=O)C1OC(C)=O (centres undefined)	> 100	> 100 µM	> 100 µM	> 100	> 100 µM	57.9 µM	> 100 µM	> 100	> 100 µM	> 100 µM	> 100 µM								
CCCCOC(=O)C1CC[C@H]2[C@@H]3CCc4cc(OC(=O)c5cccc6c(=O)c7ccccc7[nH]c56)ccc4[C@H]3CC[C@]12C (some centres undefined)	17.6	16.9 µM	15 µM	16.1	8.77 µM	13.6 µM	21.3 µM	14.9	15.8 µM	18 µM	19.6 µM								
c1ccc2c(c1)cc1n2CCc2c-1[nH]c1ccccc21	> 10	> 10 µM	> 10 µM	> 10	> 10 µM	> 10 µM	> 10 µM	> 10	> 10 µM	> 10 µM	> 10 µM								
COc1cc(OC)c2c(c1)OC(c1cccnc1)C(c1ccccc1)C2=O (centres undefined)	> 100	> 100 µM	> 100 µM	> 100	> 100 µM	> 100 µM	> 100 µM	> 100	> 100 µM	> 100 µM	> 100 µM								
CC(=O)OCC1OC(n2c(S)c(C#N)c(-c3ccccc3)c(C#N)c2=O)C(OC(C)=O)C(OC(C)=O)C1OC(C)=O (centres undefined)	> 100	> 100 µM and 51.3 µM	> 100 µM and 59.1 µM	> 100	> 100 µM and 76.1 µM	> 100 µM and 35.5 µM	> 100 µM and 36.2 µM	> 100	> 100 µM and 32.9 µM	> 100 µM and 34.6 µM	> 100 µM and 61.7 µM	54.8 µM and 27 µM	> 66.8 µM and 21.1 µM	29.4 µM and > 100 µM	> 100 µM and 25.1 µM	> 100 µM and 17.4 µM	> 100 µM and 16.7 µM	> 100 µM and 18 µM	> 100 µM and 17.2 µM
COC(=O)C1(SC)C2CCC3C2CCC31 (centres undefined)	> 100	> 100 µM	> 100 µM	> 100	> 100 µM	> 100 µM	> 100 µM	> 100	> 100 µM	> 100 µM	> 100 µM								
C(#CP(c1ccccc1)c1ccccc1)P(C#CP(c1ccccc1)c1ccccc1)c1ccccc1	> 100	> 100 µM	> 100 µM	97.6	> 100 µM	> 100 µM	> 100 µM	> 100	> 100 µM	> 100 µM	> 100 µM								
COc1ccccc1C(=O)NCC1CCCN2CCCCC12 (centres undefined)	> 100	> 100 µM	> 100 µM	> 100	> 100 µM	> 100 µM	> 100 µM	> 100	> 100 µM	> 100 µM	> 100 µM								
O=C1C(c2c(O)[nH]c3ccc(Br)cc23)=Nc2ccc(Br)cc21	> 100	> 100 µM	> 100 µM	> 100	> 100 µM	> 100 µM	81.3 µM	82.3	> 100 µM	> 100 µM	> 100 µM								

Structure (SMILES)	TGI [1] [µM]	TGI [2]	TGI [3]	TGI [4] [µM]	TGI [5]	TGI [6]	TGI [7]	TGI [8] [µM]	TGI [9]	TGI [10]	TGI [11]	GI50 [2]	GI50 [3]	GI50 [4]	GI50 [5]	GI50 [6]	GI50 [7]	GI50 [9]	GI50 [10]
Nc1nc(Cl)c(Cl)c(NCC2(O)CCC2)n1	> 100	40.9 µM	> 100 µM	> 100	> 100 µM	> 100 µM	> 100 µM	> 100	> 100 µM	> 100 µM	> 100 µM								
C(=Nc1ccc(-c2nc3ccccc3s2)cc1)c1ccc[nH]1	> 100	28 µM	46.2 µM	27.9	45.4 µM	72.6 µM	> 100 µM	34.5	31.9 µM	41 µM	52.5 µM								
CCC(C)C1=C(O)[N+]2([O-])Oc3ccc(-c4c(O)c(O)c(-c5ccc(OC(C)=O)cc5)c(OC(C)=O)c4OC(C)=O)cc3OC2(C(C)CC)C(=O)N1O (centres undefined)	> 50	> 50 µM	> 50 µM	> 50	> 50 µM	> 50 µM	> 50 µM	> 50	41.5 µM	> 50 µM	> 50 µM								
O=C1CN(c2cccc(Cl)c2)C(=O)CN1NCNN1CC(=O)N(c2cccc(Cl)c2)CC1=O	> 100	> 100 µM	> 100 µM	> 100	> 100 µM	> 100 µM	> 100 µM	> 100	> 100 µM	> 100 µM	> 100 µM								
C/C(=N\O)c1cccc[n+]1Cc1ccccc1	> 100	> 100 µM	> 100 µM	> 100	> 100 µM	> 100 µM	> 100 µM	> 100	> 100 µM	> 100 µM	> 100 µM								
CCN1CCC(CNC(=O)c2ccc(N)cc2)N1CC (centres undefined)	> 100	> 100 µM	> 100 µM	> 100	> 100 µM	> 100 µM	> 100 µM	> 100	> 100 µM	> 100 µM	> 100 µM								
COc1cc2c(/C=C3/C(=O)N(C)c4ccc(O)cc43)c(Cl)[nH]c2cc1C	16.9	16.6 µM	15.8 µM	2.93	23.9 µM	3.02 µM	15 µM	18.4	0.85 µM	0.124 µM	25.3 µM								
Cc1cc(S(=O)(=O)Nc2n[nH]c(N)n2)c(Cl)cc1Cl	> 10	> 10 µM	> 10 µM	> 10	> 10 µM	> 10 µM	> 10 µM	> 10	> 10 µM	> 10 µM	> 10 µM								
CN(CCNC(=O)c1c[nH]c2c1Cc1ccccc1-2)CCNC(=O)c1c[nH]c2c1Cc1ccccc1-2	> 100	97 µM	> 100 µM	> 100	> 100 µM	77.2 µM	> 100 µM	> 100	> 100 µM	41.3 µM	> 100 µM								
O=C1CSC(c2cccc(Cl)c2)N1c1ccc(-c2ccc(-n3c(-c4ccccc4)nc4ccccc4c3=O)cc2)cc1 (centres undefined)	> 100	> 100 µM	80.3 µM	> 100	> 100 µM	> 100 µM	> 100 µM	> 100	> 100 µM	> 100 µM	> 100 µM								
COc1ccc(NCC(=O)Nn2c(-c3ccccc3)nc3ccccc3c2=O)cc1	> 100	> 10 µM	65.4 µM	> 100	> 100 µM	> 100 µM	> 100 µM	> 100	> 100 µM	> 100 µM	> 100 µM								
O=C(O)[C@H](CCC[C@H]1C(=O)O[C@H](c2ccccc2)[C@H](c2ccccc2)N1C(=O)OCc1ccccc1)N[C@@H](c1ccccc1)[C@H](O)c1ccccc1	> 100	38.6 µM	78.9 µM	81	> 100 µM	38.8 µM	45.7 µM	> 100	44 µM	40.8 µM	> 100 µM								
CC1(C)COC2=C(C1)C(=O)c1ccccc1C2=O	4.76	3.8 µM	3.66 µM	3	3.59 µM	2.71 µM	1.53 µM	3.07	3.08 µM	0.338 µM	3.57 µM								
O=C(NO)NCCCl	> 100	> 100 µM	> 100 µM	> 100	> 100 µM	> 100 µM	> 100 µM	> 100	> 100 µM	> 100 µM	> 100 µM								
Cc1ccc(C2(c3ccc(F)cc3)OC(=O)c3ccccc32)c(O)c1 (centres undefined)	47.2	35.9 µM	44.6 µM	24.5	92.1 µM	41.9 µM	48 µM	28.7	38.4 µM	31.6 µM	86.7 µM								
O=C(/C(=C\I)c1ccccc1)c1ccccc1	49.2	22.5 µM	30.3 µM	32.9	32.3 µM	2.57 µM	14.6 µM	19.2	16.1 µM	26.5 µM	> 46.2 µM								
O=C(Cn1c(C(=O)c2ccccc2)nc2ccccc21)c1ccccc1	> 100	> 100 µM	> 100 µM	> 100	> 100 µM	> 100 µM	> 100 µM	> 100	> 100 µM	> 100 µM	> 100 µM								
COc1ccccc1C1(c2c(OC)c(=O)c2=O)SCCCS1	> 100	> 100 µM	> 100 µM	> 100	> 100 µM	> 100 µM	> 100 µM	> 100	> 100 µM	> 100 µM	> 100 µM								
C=C1C(=O)O[C@H]2C[C@@H]1[C@@H](O)[C@H](O)[C@@H](C)CCCC(C)=CCC[C@@]2(C)O	> 100	33.9 µM	25.9 µM	> 100	> 100 µM	> 100 µM		> 100	60.5 µM	> 100 µM	73 µM								

From PubChem BioAssay (NCI)
